In ChEMBL document CHEMBL1287786, “Synthesis, antimicrobial and antioxidant evaluation of quinolines and bis(indolyl)methanes” (2010) one finds Activity and zone of inhibition data, which are given here for one compound.

Assay type in all cases: functional
A short description of assay [1]: Antioxidant activity assessed as hydrogen peroxide radical scavenging activity by spectrophotometry relative to control. Also noted: concentration or dose not given beside the values.
A short description of assay [2]: Antioxidant activity assessed as hydrogen peroxide radical scavenging activity after 20 mins by spectrophotometry relative to control. Also noted: concentration or dose not given beside the values.
For assay [3], the system named is Radical scavenging activity. Briefly: Antioxidant activity assessed as DPPH radical scavenging activity at 50 ug by spectrophotometry relative to control.
The nature of assay [4]: Antioxidant activity assessed as hydrogen peroxide radical scavenging activity after 40 mins by spectrophotometry relative to control. Also on record: concentration or dose not given beside the values.
The subject of the next assay is Staphylococcus aureus. The assay is described as follows: Antibacterial activity against Staphylococcus aureus ATCC 25923 at 1000 ug/ml after 24 hrs by cup plate method. As to conditions: ATCC 25923, 24 h, read-out: IZ.
Assay [5] is described as follows: Antioxidant activity assessed as hydrogen peroxide radical scavenging activity after 30 mins by spectrophotometry relative to control. Also on record: concentration or dose not given beside the values.
The test system of assay [6] is Radical scavenging activity. The assay is described as follows: Antioxidant activity assessed as DPPH radical scavenging activity at 500 ug by spectrophotometry relative to control.
The test system of a further assay is Candida albicans. Briefly: Antifungal activity against Candida albicans ATCC 10231 at 1000 ug/ml after 24 hrs by cup plate method. As to conditions: ATCC 10231, 24 h, read-out: IZ.
For assay [7], the system named is Radical scavenging activity. Briefly: Antioxidant activity assessed as DPPH radical scavenging activity at 1000 ug by spectrophotometry relative to control.
In the next assay the test system is Escherichia coli. The assay is described as follows: Antibacterial activity against Escherichia coli ATCC 25922 at 1000 ug/ml after 24 hrs by cup plate method. The following applies: ATCC 25922, 24 h, read-out: IZ.
Assay [8] is described as follows: Antioxidant activity assessed as hydrogen peroxide radical scavenging activity after 10 mins by spectrophotometry relative to control. Also on record: concentration or dose not given beside the values.

Regarding `CCn1c2ccccc2c2cc(C(c3c(-c4ccccc4)[nH]c4ccccc34)c3c(-c4ccccc4)[nH]c4ccccc34)ccc21`, the Activity in assay [1] worked out at 85%; in assay [2], 82%; in assay [3], 15%; in [4] it was 65%; in assay [5] it was 75%; in assay [6] it was 42%. Besides, the Activity in [7] was 73%; in assay [8], 80%. Further, the zone of inhibition at 1000 µg/mL turned out to be 24 mm in the assay on Staphylococcus aureus, 24 mm in the assay with Candida albicans and 23 mm in the assay on Escherichia coli.
